Like-named read-outs stand apart in the source and are kept apart here.
Assays:
[1] = system: total β-catenin in SW480 colorectal cells; assay: Total β-catenin MSD 96-well plate assay for SW480 cells; settings: Homo sapiens, SW480, read-out: SW480-Total beta-catenin (TBC) IC50 IP
[2] = molecular target: PARP2 (Homo sapiens (Human), UniProt Q9UGN5); assay: PARP2 biochemical assay (BPS kit)
[3] = molecular target: 6×HIS-tankyrase 2 (946-1162) (Homo sapiens (Human), UniProt Q9H2K2); assay: Tankyrase 2 biochemical assay (AlphaLisa, PARsylation); settings: 250 nM NAD; read-out: TNKS2 IC50
[4] = system: Axin2 accumulation in SW480 cells; assay: Axin2 384 immunofluorescence assay; assay type: cell-based; settings: Homo sapiens, read-out: Axin2 384 IF EC50
[5] = molecular target: PARP1 (Homo sapiens (Human), UniProt P09874); assay: PARP1 biochemical assay (Trevigen kit)
Excerpt: PARP1 biochemical assay was purchased as a kit from Trevigen (cat.#4676-096-K) and used per manufacturers recommendations.

[6] = molecular target: 6×HIS-tankyrase1 (1091-1325) (Homo sapiens (Human), UniProt O95271); assay: Tankyrase 1 biochemical assay (AlphaLisa, PARsylation); settings: 400 nM NAD, 60 minutes at RT; read-out: TNKS1 IC50
Sequence of 6×HIS-tankyrase1 (1091-1325) (O95271 1091-1325): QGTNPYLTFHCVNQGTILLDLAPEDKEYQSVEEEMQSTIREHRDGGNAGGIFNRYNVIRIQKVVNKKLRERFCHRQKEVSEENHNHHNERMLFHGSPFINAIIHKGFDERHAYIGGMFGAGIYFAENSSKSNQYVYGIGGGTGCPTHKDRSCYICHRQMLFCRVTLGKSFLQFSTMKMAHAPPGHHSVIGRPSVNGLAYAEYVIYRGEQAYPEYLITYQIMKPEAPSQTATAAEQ

Sequence of 6×HIS-tankyrase 2 (946-1162) (Q9H2K2 946-1162): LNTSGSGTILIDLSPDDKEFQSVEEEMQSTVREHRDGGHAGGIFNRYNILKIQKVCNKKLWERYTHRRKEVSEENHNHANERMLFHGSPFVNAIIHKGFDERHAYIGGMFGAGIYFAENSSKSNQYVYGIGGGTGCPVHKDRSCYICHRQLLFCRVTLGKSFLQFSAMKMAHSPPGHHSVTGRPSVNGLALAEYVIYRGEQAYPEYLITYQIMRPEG
Sequence of PARP1 (P09874 whole entry): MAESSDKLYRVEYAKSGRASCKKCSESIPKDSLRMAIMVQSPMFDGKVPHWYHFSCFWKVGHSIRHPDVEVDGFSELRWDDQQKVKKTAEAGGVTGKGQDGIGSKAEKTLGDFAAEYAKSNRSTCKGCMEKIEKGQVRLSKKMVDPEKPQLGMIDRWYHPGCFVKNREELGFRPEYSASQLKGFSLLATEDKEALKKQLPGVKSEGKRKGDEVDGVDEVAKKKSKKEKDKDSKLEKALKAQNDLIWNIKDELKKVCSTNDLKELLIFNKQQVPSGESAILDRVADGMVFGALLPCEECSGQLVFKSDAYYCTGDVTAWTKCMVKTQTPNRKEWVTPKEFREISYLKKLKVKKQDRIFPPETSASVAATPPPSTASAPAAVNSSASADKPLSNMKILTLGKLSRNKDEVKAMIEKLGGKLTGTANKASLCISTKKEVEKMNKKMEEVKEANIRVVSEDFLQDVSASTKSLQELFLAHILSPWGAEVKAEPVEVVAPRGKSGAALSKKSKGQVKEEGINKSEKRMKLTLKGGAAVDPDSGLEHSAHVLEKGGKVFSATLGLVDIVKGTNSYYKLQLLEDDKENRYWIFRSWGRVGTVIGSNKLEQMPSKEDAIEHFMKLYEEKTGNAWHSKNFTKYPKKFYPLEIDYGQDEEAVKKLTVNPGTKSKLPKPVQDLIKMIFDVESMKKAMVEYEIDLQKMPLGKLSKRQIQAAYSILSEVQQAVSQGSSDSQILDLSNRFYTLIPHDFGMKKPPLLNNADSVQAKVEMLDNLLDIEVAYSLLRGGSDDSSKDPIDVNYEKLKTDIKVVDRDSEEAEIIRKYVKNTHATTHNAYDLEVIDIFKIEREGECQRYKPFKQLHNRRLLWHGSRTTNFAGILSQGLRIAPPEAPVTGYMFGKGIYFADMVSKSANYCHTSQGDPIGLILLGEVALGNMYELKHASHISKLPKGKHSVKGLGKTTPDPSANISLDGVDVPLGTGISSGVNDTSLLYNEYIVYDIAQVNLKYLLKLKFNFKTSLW
Sequence of PARP2 (Q9UGN5 whole entry): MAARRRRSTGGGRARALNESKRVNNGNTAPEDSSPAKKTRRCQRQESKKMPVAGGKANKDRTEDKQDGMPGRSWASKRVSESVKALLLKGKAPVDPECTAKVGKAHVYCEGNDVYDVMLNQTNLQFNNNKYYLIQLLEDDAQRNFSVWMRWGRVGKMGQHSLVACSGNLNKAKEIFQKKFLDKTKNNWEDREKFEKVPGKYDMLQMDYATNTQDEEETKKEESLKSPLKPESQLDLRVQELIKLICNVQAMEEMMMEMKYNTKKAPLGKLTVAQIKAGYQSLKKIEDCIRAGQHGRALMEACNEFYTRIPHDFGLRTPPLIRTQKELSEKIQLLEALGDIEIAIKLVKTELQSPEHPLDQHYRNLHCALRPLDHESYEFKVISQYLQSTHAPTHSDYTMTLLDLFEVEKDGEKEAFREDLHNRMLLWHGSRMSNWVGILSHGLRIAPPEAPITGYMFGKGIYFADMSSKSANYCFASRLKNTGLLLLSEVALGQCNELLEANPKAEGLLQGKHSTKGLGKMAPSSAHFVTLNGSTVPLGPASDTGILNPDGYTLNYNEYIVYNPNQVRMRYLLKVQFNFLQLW

SMILES | IC50 [1] | IC50 [2] | IC50 [3] | EC50 ([4]; SW480 cells, 24 hours) | IC50 [5] | IC50 [6] | EC50 ([4]; SW480, 24 h)
CC(C)(c1ccccc1)c1nnc([C@H]2CC[C@H](NC(=O)CCc3nc4ccccc4c(=O)[nH]3)CC2)o1 [Example 140, 3-(4-oxo-3,4-dihydroquinazolin-2-yl)-N-((1r,4r)-4-(5-(2-phenylpropan-2-yl)-1,3,4-oxadiazol-2-yl)cyclohexyl)propanamide] | – | 1290 nM | – | – | 7450 nM | 1210 nM | –
O=C(CCc1nc2ccccc2c(=O)[nH]1)N[C@H]1CC[C@H](c2nnc(Cc3ccccc3)o2)CC1 [Example 139, N-((1r,4r)-4-(5-benzyl-1,3,4-oxadiazol-2-yl)cyclohexyl)-3-(4-oxo-3,4-dihydroquinazolin-2-yl)propanamide] | – | 1130 nM | 624 nM | > 25000 nM | 8220 nM | – | –
N#Cc1cccc(-c2nnc([C@H]3CC[C@H](NC(=O)CCc4nc5ccccc5c(=O)[nH]4)CC3)o2)c1 [Example 137, N-((1r,4r)-4-(5-(3-cyanophenyl)-1,3,4-oxadiazol-2-yl)cyclohexyl)-3-(4-oxo-3,4-dihydroquinazolin-2-yl)propanamide] | 741 nM | 4680 nM | 99.8 nM | 1820 nM | – | 217 nM | –
O=C(CC[S+]([O-])c1nc2ccccc2c(=O)[nH]1)N[C@H]1CC[C@H](c2nnc(-c3ccccc3)o2)CC1 (stereo partly drawn) [Example 143, 3-((4-oxo-3,4-dihydroquinazolin-2-yl)sulfinyl)-N-((1r,4r)-4-(5-phenyl-1,3,4-oxadiazol-2-yl)cyclohexyl)propanamide] | 929 nM | – | 52.3 nM | 970 nM | – | 17.9 nM | –
Cn1c(=O)n(C2CCN(C(=O)CCCc3nc4ccccc4c(=O)[nH]3)CC2)c2ccc(Cl)cc21 [Example 45, 2-(4-(4-(5-chloro-3-methyl-2-oxo-2,3-dihydro-1H-benzimidazol-1-yl)-1-piperidinyl)-4-oxobutyl)-4(3H)-quinazolinone] | 2340 nM | 1020 nM | 52.5 nM | 4630 nM | – | 73.7 nM | –
O=C(CCc1nc2ccccc2c(=O)[nH]1)N[C@H]1CC[C@H](c2nnc(-c3ccccc3Cl)o2)CC1 [Example 128, N-((1r,4r)-4-(5-(2-chlorophenyl)-1,3,4-oxadiazol-2-yl)cyclohexyl)-3-(4-oxo-3,4-dihydroquinazolin-2-yl)propanamide] | 592 nM | 276 nM | 81.3 nM | 1750 nM | 3890 nM | – | –
O=C(CCc1nc2ccccc2c(=O)[nH]1)N[C@H]1CC[C@H](c2nnc(-c3ccccn3)o2)CC1 [Example 131, 3-(4-oxo-3,4-dihydroquinazolin-2-yl)-N-((1r,4r)-4-(5-(pyridin-2-yl)-1,3,4-oxadiazol-2-yl)cyclohexyl)propanamide] | 1770 nM | – | 187 nM | 12100 nM | 5650 nM | – | –
O=C(CCc1nc2ccccc2c(=O)[nH]1)N[C@H]1CC[C@H](c2nnc(-c3cnccn3)o2)CC1 [Example 142, 3-(4-oxo-3,4-dihydroquinazolin-2-yl)-N-((1r,4r)-4-(5-(pyrazin-2-yl)-1,3,4-oxadiazol-2-yl)cyclohexyl)propanamide] | – | 1700 nM | 203 nM | 6490 nM | 5470 nM | – | –
O=C(CCSc1nc2ccccc2c(=O)[nH]1)N[C@H]1C[C@H](c2nnc(-c3ccccc3)o2)C1 [Example 40, 3-((4-oxo-3,4-dihydroquinazolin-2-yl)thio)-N-((1r,3r)-3-(5-phenyl-1,3,4-oxadiazol-2-yl)cyclobutyl)propanamide] | – | 3970 nM | – | – | – | 0.0891 nM | –
O=C(CCCc1nc2ccccc2c(=O)[nH]1)N1CCC(n2cc(-c3ccccc3)[nH]c2=O)CC1 [Example 49, 2-(4-oxo-4-(4-(2-oxo-4-phenyl-2,3-dihydro-1H-imidazol-1-yl)-1-piperidinyl)butyl)-4(3H)-quinazolinone trifluoroacetic acid] | 530 nM | – | – | – | – | 118 nM | 5330 nM

Second part, led by results:

IC50 [1] | IC50 [2] | IC50 [3] | EC50 ([4]; SW480 cells, 24 hours) | IC50 [5] | IC50 [6] | SMILES | EC50 ([4]; SW480, 24 h)
960 nM | 1060 nM | 32.7 nM | 1190 nM | 10800 nM | – | O=C(CCc1nc2ccccc2c(=O)[nH]1)N[C@H]1CC[C@H](c2nnc(-c3cccnc3)o2)CC1 [Example 136, 3-(4-oxo-3,4-dihydroquinazolin-2-yl)-N-((1r,4r)-4-(5-(pyridin-3-yl)-1,3,4-oxadiazol-2-yl)cyclohexyl)propanamide] | –
124 nM | 1960 nM | 12.8 nM | 435 nM | 1090 nM | – | O=C(CCc1nc2ccccc2c(=O)[nH]1)N[C@H]1CC[C@H](c2nnc(-c3cccc(F)c3)o2)CC1 [Example 129, N-((1r,4r)-4-(5-(3-fluorophenyl)-1,3,4-oxadiazol-2-yl)cyclohexyl)-3-(4-oxo-3,4-dihydroquinazolin-2-yl)propanamide] | –
7.84 nM | 720 nM | 0.796 nM | 3.42 nM | – | 0.127 nM | O=C(CCSc1nc2ccccc2c(=O)[nH]1)N[C@H]1CC[C@H](n2c(=O)[nH]c3cc(Cl)ccc32)CC1 [Example 90, N-((1r,4r)-4-(5-chloro-2-oxo-2,3-dihydro-1H-benzo[d]imidazol-1-yl)cyclohexyl)-3-((4-oxo-3,4-dihydroquinazolin-2-yl)thio)propanamide] | –
– | 1900 nM | 0.389 nM | – | – | 0.405 nM | O=C(CCSc1nc2ccccc2c(=O)[nH]1)N[C@H]1C[C@@H](c2nnc(-c3ccccc3)o2)C1 [Example 39, 3-((4-oxo-3,4-dihydroquinazolin-2-yl)thio)-N-((1s,3s)-3-(5-phenyl-1,3,4-oxadiazol-2-yl)cyclobutyl)propanamide] | –
19.7 nM | 923 nM | 0.196 nM | 10.8 nM | – | 0.277 nM | O=C(CCCc1nc2ccccc2c(=O)[nH]1)N[C@H]1CC[C@H](c2nnc(-c3ccc(F)c(Cl)c3)o2)CC1 [Example 35, N-(trans-4-(5-(3-chloro-4-fluorophenyl)-1,3,4-oxadiazol-2-yl)cyclohexyl)-4-(4-oxo-3,4-dihydro-2-quinazolinyl)butanamide 2,2,2-trifluoroacetate] | –
142 nM | 3220 nM | 22.5 nM | 1390 nM | – | 66.6 nM | O=c1[nH]c(CCNC(=O)[C@H]2CC[C@H](c3nnc(-c4ccccc4)o3)CC2)nc2ccccc12 [Example 1, trans-N-(2-(4-oxo-3,4-dihydro-2-quinazolinyl)ethyl)-4-(5-phenyl-1,3,4-oxadiazol-2-yl)cyclohexanecarboxamide] | –
252 nM | 421 nM | 15.2 nM | 783 nM | 936 nM | – | O=C(CCc1nc2ccc(F)cc2c(=O)[nH]1)N[C@H]1CC[C@H](c2nnc(-c3ccccc3)o2)CC1 [Example 101, 3-(6-fluoro-4-oxo-3,4-dihydroquinazolin-2-yl)-N-((1r,4r)-4-(5-phenyl-1,3,4-oxadiazol-2-yl)cyclohexyl)propanamide] | –
1.93 nM | – | 0.179 nM | 1.68 nM | – | 1.52 nM | O=C(CCSc1nc2ccccc2c(=O)[nH]1)N[C@H]1CC[C@H](c2nnc(-c3ccc(Cl)cc3)o2)CC1 [Example 125, N-((1r,4r)-4-(5-(4-chlorophenyl)-1,3,4-oxadiazol-2-yl)cyclohexyl)-3-((4-oxo-3,4-dihydroquinazolin-2-yl)thio)propanamide] | –
157 nM | 2310 nM | 12.7 nM | 307 nM | 1970 nM | – | O=C(CCc1nc2ccccc2c(=O)[nH]1)N[C@H]1CC[C@H](c2nnc(-c3ccc(F)cc3)o2)CC1 [Example 127, N-((1r,4r)-4-(5-(4-fluorophenyl)-1,3,4-oxadiazol-2-yl)cyclohexyl)-3-(4-oxo-3,4-dihydroquinazolin-2-yl)propanamide] | –
2.03 nM | 3730 nM | 5.35 nM | 2.33 nM | – | 0.0647 nM | COc1cccc(-c2nnc([C@H]3CC[C@H](NC(=O)CCSc4nc5ccccc5c(=O)[nH]4)CC3)o2)c1 [Example 120, N-((1r,4r)-4-(5-(3-methoxyphenyl)-1,3,4-oxadiazol-2-yl)cyclohexyl)-3-((4-oxo-3,4-dihydroquinazolin-2-yl)thio)propanamide] | –
3 nM | – | 3.34 nM | 5.72 nM | – | 0.194 nM | O=C(CCSc1nc2ccccc2c(=O)[nH]1)N[C@H]1CC[C@H](c2nnc(-c3cccc(F)c3)o2)CC1 [Example 119, N-((1r,4r)-4-(5-(3-fluorophenyl)-1,3,4-oxadiazol-2-yl)cyclohexyl)-3-((4-oxo-3,4-dihydroquinazolin-2-yl)thio)propanamide] | –
1.23 nM | – | 3.98 nM | 2.78 nM | – | 0.269 nM | O=C(CCSc1nc2ccccc2c(=O)[nH]1)N[C@H]1CC[C@H](c2nnc(-c3ccc(F)cc3)o2)CC1 [Example 117, N-((1r,4r)-4-(5-(4-fluorophenyl)-1,3,4-oxadiazol-2-yl)cyclohexyl)-3-((4-oxo-3,4-dihydroquinazolin-2-yl)thio)propanamide] | –
110 nM | 944 nM | 7.92 nM | 240 nM | 998 nM | – | O=C(CCc1nc2ccccc2c(=O)[nH]1)N[C@H]1CC[C@H](c2nnc(-c3cccc(Cl)c3)o2)CC1 [Example 130, N-((1r,4r)-4-(5-(3-chlorophenyl)-1,3,4-oxadiazol-2-yl)cyclohexyl)-3-(4-oxo-3,4-dihydroquinazolin-2-yl)propanamide] | –
